{"source": "patent US20070202079A1", "about": "“Therapeutic compositions and methods useful in modulating protein tyrosine phosphatases” (priority 2006, published 2007)", "key": {"[1]": {"system": "Renca cells", "assay": "Renca cell growth, MTT", "type": "cell-based, murine", "conditions": "SSG 6.25-200 μg/ml, 6 days; listed as SSG", "source_text": "Renca (Murphy, G. P., and W. J. Hrushesky. 1973. A murine renal cell carcinoma. J Natl Cancer Inst 50:1013), Jurkat (Gillis, S., and J. Watson. 1980. Biochemical and biological characterization of lymphocyte regulatory molecules. V. Identification of an interleukin 2-producing human leukemia T cell line. J Exp Med 152:1709) and WM9 (Forsberg, K., I. Valyi-Nagy, C. H. Heldin, M. Herlyn, and B. Westermark. 1993. Platelet-derived growth factor (PDGF) in oncogenesis: development of a vascular connective tissue stroma in xenotransplanted human melanoma producing PDGF-BB. Proc Natl Acad Sci USA 90:393) cell lines were obtained from a colleague at the Cleveland Clinic Foundation (CCF) and cultured in RPMI 1640 medium supplemented with 10% fetal calf serum (FCS). Recombinant IL-2 (Proleukin, 22 million IU/1.3 mg, Chiron, Emeryville, Calif.) was purchased from the CCF pharmacy. […] For cell growth inhibition assays, cells were cultured in absence or presence of various amounts of SSG for 6 days with viable cells quantified by MTT assays as described elsewhere (Pathak, M. K., and T. Yi. 2001. Sodium stibogluconate is a potent inhibitor of protein tyrosine phosphatases and augments cytokine responses in hemopoietic cell lines. J Immunol 167:3391)."}, "[2]": {"system": "U251", "assay": "U251 cell growth, MTT", "type": "cell-based, human", "conditions": "100 μg/ml, day 6", "description": "(§1) NIH3T3 (Yi, et al., Blood 85, 87 (1995)), WM9 (Forsberg, et al., Proc. Nat. Acad Sci. USA 90, 393 (1993)), DU145 (Mickey, et al., Cancer Res. 37, 4049 (1977)), LoVo (Drewinko, et al., Cancer Res. 36, 467 (1976)), HEY (Buick, et al., Cancer Res. 45, 3668 (1985)), U251 (Yoshida, et al., Cancer 50, 410 (1982)), A549 (Giard, et al., J. Natl. Cancer Inst. 51, 1417 (1973)) and SK-N-SH (Helson, et al., Cancer Res. 35, 2594 (1975)) cell lines have been described and were cultured in RPMI 1640 supplemented with 10% fetal calf serum (FCS). For measurement of sodium stibogluconate effects on cell growth in vitro, cells were cultured in the absence (−) or presence (+) of various amounts of sodium stibogluconate for 6 days with viable cells quantified by MTT assays (Mosmann, J. Immunol. Methods 65, 55 (1983)). Percentages of growth inhibition by sodium stibogluconate were calculated (.+−.x%)."}, "[3]": {"assay": "toxicity in nude mice", "type": "in vivo", "description": "Nude mice bearing WM9 or DU145 xenografts were treated with IFN-alpha (500,000 U, s.c., daily), sodium stibogluconate (12 mg Sb, s.c., daily) or both. […] The dosage of sodium stibogluconate corresponds to approximately 440 mg Sb/kg body weight (average mouse body weight 27 g), substantially higher than the standard therapeutic dose of 20 mg Sb/kg and the high dose (143 mg Sb/kg) that was clinically used by accident without serious toxicity. This dose of sodium stibogluconate was based on a previous observation in a pilot study that mice could tolerate daily dose of 20 mg Sb (approximately 700-800 mg Sb/kg). An observation that the effect of sodium stibogluconate in inhibiting the growth of the cancer cell lines in vitro was dose-dependent with complete or near complete killing of the cancer cells at 100 μg Sb/ml (or […]) was also considered. […]\nAs discussed above, the dosage of sodium stibogluconate used for the treatment of nude mice was 12 mg Sb/mouse, s.c., daily (or approximately 440 mg/kg body weight). […] As an initial step to assess the toxicity of such a high dosage of sodium stibogluconate in nude mice, the effect of sodium stibogluconate on the viability and body weights of WM9 xenografts nude mice during the 25 day period of the study was determined."}, "[4]": {"system": "LoVo", "assay": "LoVo cell growth, MTT", "type": "cell-based, human", "conditions": "100 μg/ml, day 6", "description": "as §1"}, "[5]": {"system": "DU145 cells", "assay": "DU145 cell growth, MTT", "type": "cell-based, human", "description": "For cell proliferation assays, cells were grown in 10% FCS culture medium containing various amounts of IFNs and/or sodium stibogluconate in 96 well plates and cultured at 37° C. for 3 or 6 days as indicated. The numbers of viable cells in proliferation assays were determined by MTT assays as described in Phatak et al., J. Immunol. 167, 3391 (2001).\nas §1"}, "[6]": {"system": "IFNγ+ cells in human peripheral blood", "assay": "ELISPOT assays of peripheral blood treated in vitro", "type": "cell-based", "conditions": "comparable conditions"}}, "note": "Entries after “also recorded” stand apart in the source; their conditions may differ."}
{"smiles": "O.O.O.O.O.O.O.O.O.O=C([O-])[C@@H]1[O][Sb]2([O-])([O][Sb]34([OH])[O][C@H]([C@H](O)CO)[C@H]([O]3)[C@H](C(=O)[O-])[O]4)[O][C@H]([C@H](O)CO)[C@@H]1[O]2.[Na+].[Na+].[Na+]", "note": "[sodium stibogluconate]", "values": [{"measurement": "Renca cell growth in culture", "setting": "[1]", "result": "failed to inhibit Renca cell proliferation"}, {"measurement": "cell killing of U251", "setting": "[2]", "result": "near-complete cell killing"}, {"measurement": "viability and tolerance of treated mice", "setting": "[3]; WM9 xenograft mice, 25 days, 12 mg Sb daily (440 mg Sb/kg), IFN-alpha 500,000 U", "result": "survived until the end of the study; also recorded: well tolerated with no serious side effects"}, {"measurement": "tolerated daily dose, pilot study", "setting": "[3]; mice, approximately 700-800 mg Sb/kg", "result": 20, "unit": "mg Sb"}, {"measurement": "cell killing of LoVo", "setting": "[4]", "result": "near-complete cell killing"}, {"measurement": "DU145 cells, single agent", "setting": "[5]; 50 μg/ml and 100 μg/ml, day 6 culture", "result": "killed all cells"}, {"measurement": "cell killing of DU145", "setting": "[5]; 100 μg/ml, day 6", "result": "near-complete cell killing"}, {"measurement": "cells expressing TH2 cytokine IL-5", "setting": "[6]", "result": "not induced"}]}
